This is an account of results in paper PMC4707489, “A novel cell-penetrating peptide suppresses breast tumorigenesis by inhibiting β-catenin/LEF-1 signaling” (Scientific Reports, 2016).

Common to all, as to format: cell-based, human
In one assay the test system is MDA-MB-231 cells. Nature of the assay: Cell growth (CCK-8). The following applies: 75 μmol/l peptide, MDA-MB-231, CCK-8; means of three experiments (Fig. 1b).
In assay [1] the test system is MCF-7 cells. The experiment in a line: Cell growth (CCK-8). The following applies: 75 μmol/l peptide, MCF-7, CCK-8; means of three experiments (Fig. 1b).
Description: (§1) Cell growth was analyzed using 2-(2-methoxy-4-nitrophenyl)-3-(4-nitroph enyl)-5-(2,4-disulfophenyl)-2H-tetrazolium, monosodium salt, and the Cell Counting Kit-8 (CCK-8, Sigma). […] After culturing for another 48 hr, cell growth was analyzed by CCK-8 and the optical density was detected at 450 nm. The growth ratio was normalized to the cells without treatment.
Assay [2] concerns MCF-7 cells. The experiment in a line: Cell cycle analysis, sub-G1 (propidium iodide, flow cytometry). The following applies: MCF-7, 100 μmol/l peptide, flow cytometry (Fig. 3a). As to the method: MCF-7 and MDA-MB-231 cells were plated in 6-well plates for 24 hr, and the medium was replaced with fresh culture medium containing 100 μmol/l peptide. After incubation for 24 hr, the cells were harvested by trypsinization and then fixed with 70% 4 °C ethanol. Intracellular DNA was stained with […] propidium iodide in the dark for 30 min at room temperature, and the percentages of sub-G1 cells were determined by flow cytometry (BD LSRII analyzer; BD Biosciences).

Description for MDA-MB-231 cells: as §1

“H-TAT-NLS-GGGDPELCATDEMIPFKDEG-NH2 [TAT-NLS-BLBD-3]”: the cell growth entry in the assay with MDA-MB-231 cells and in the assay with MCF-7 cells [1] was “inhibited the growth” throughout.
Consider “H-TAT-NLS-GTDEAAAA-NH2 [TAT-NLS-BLBD-6m, mutated version of TAT-NLS-BLBD-6 (GTDEAAAA), used as control peptide]”, for which the cell growth result with MDA-MB-231 cells and with MCF-7 cells [1] was “did not affect the growth” each time. Further, in the assay on MCF-7 cells [2], the “sub-G1 phase region (pro-apoptotic effect)” value was 7.35%.
